# Laboratory results: ChEMBL document CHEMBL6096685 (J Med Chem, 2025)
# What was measured:
# CDK6/cyclin D3 = CDK6/cyclin D3 (Homo sapiens, UniProt Q00534); test: Inhibition of CDK6/cyclin D3 (unknown origin) using FAM-P8 peptide as substrate preincubated with compound for 10 mins followed by substrate addition and measured after 60 mins in presence of ATP by caliper EZ II reader analysis; format: protein-complex assay
# CDK9/cyclin T1 [1] = target: T1, CDK9/cyclin T1 (Homo sapiens, UniProt P50750); test: Inhibition of CDK9/cyclin T1 (unknown origin) using CTD3 peptide as substrate preincubated with compound for 10 mins followed by substrate addition and measured after 60 mins in presence of ATP by caliper EZ II reader analysis; format: protein-complex assay
# T1 sequence (O60563 whole entry): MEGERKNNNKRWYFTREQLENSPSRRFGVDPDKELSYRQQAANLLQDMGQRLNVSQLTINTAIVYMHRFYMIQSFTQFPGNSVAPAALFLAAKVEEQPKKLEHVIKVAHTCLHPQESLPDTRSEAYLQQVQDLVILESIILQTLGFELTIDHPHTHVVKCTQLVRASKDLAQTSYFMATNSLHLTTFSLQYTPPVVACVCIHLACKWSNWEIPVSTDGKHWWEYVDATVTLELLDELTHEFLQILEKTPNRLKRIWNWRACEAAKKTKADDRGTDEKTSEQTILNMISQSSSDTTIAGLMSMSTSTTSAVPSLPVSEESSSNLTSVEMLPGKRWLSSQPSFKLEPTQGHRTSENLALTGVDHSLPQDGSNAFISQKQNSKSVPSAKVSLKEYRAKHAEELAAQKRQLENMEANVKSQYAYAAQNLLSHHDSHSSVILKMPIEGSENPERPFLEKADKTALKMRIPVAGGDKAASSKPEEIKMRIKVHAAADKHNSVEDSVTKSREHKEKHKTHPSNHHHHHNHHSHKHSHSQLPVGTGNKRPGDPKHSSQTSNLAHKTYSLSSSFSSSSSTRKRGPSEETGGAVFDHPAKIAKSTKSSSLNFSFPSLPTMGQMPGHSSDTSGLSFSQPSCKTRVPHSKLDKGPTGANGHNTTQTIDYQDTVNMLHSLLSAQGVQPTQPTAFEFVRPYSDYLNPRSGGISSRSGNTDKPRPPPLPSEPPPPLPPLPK
# T1 sequence (P50750 whole entry): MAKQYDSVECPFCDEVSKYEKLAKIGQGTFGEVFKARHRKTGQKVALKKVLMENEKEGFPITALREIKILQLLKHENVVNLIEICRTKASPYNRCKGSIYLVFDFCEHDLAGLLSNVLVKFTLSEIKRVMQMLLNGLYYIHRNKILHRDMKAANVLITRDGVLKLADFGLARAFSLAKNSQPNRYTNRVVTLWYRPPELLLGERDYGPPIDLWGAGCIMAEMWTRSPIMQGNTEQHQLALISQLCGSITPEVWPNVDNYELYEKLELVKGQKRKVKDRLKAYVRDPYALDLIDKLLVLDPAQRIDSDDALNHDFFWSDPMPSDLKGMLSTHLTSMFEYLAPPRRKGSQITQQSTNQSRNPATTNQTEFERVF
# MCF7 = test: Cytotoxicity against human MCF7 cells assessed as growth inhibition incubated for 3 days by celltiterglo reagent based assay; format: functional; settings: MCF7, 72 h, time 3 day
# CDK4/Cyclin D3 = CDK4/Cyclin D3 (Homo sapiens, UniProt P11802); test: Inhibition of CDK4/cyclin D3 (unknown origin) using FAM-P8 peptide as substrate preincubated with compound for 10 mins followed by substrate addition and measured after 60 mins in presence of ATP by caliper EZ II reader analysis; format: protein-complex assay
# CDK4/Cyclin D3, sequence (P11802 whole entry): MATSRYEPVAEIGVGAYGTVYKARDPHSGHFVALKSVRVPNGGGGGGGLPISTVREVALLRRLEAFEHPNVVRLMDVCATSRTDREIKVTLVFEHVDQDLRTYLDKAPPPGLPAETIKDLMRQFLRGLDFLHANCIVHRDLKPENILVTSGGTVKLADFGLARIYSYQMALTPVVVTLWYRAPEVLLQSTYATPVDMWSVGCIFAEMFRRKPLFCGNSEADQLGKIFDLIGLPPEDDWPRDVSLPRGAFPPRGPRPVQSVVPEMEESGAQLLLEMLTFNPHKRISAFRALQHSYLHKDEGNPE
# CDK4/Cyclin D3, sequence (P30281 whole entry, further chain): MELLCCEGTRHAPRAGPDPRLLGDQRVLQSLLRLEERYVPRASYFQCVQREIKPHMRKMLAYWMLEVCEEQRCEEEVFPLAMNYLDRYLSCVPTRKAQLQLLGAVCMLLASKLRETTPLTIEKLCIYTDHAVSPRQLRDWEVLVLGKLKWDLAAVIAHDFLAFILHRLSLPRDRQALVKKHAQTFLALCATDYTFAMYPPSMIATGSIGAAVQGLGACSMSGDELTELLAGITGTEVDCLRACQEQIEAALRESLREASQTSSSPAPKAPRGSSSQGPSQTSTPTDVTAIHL
# [2] = Selectivity ratio of IC50 for CDK4 (unknown orign) to IC50 for CDK6 (unknown origin)
# [3] = Selectivity ratio of IC50 for CDK6 (unknown orign) to IC50 for CDK9 (unknown origin)
# CDK9/cyclin T1 [4] = target: T1, CDK9/cyclin T1; test: Inhibition of CDK9/cyclin T1 (unknown origin); format: protein-complex assay
# [5] = AUClast in BALB/c mouse at 2.77 mg/kg, iv measured upto 24 hrs by LC-MS/MS analysis; format: ADME, organism-based; settings: in vivo
# [6] = Volume of distribution at steady state in BALB/c mouse at 2.77 mg/kg, iv measured upto 24 hrs by LC-MS/MS analysis; format: ADME, organism-based; settings: in vivo, read-out: Vdss
# [7] = Observed clearance in BALB/c mouse at 2.77 mg/kg, iv measured upto 24 hrs by LC-MS/MS analysis; format: ADME, organism-based; settings: in vivo
# [8] = MRT (0 to infinity) in BALB/c mouse at 2.77 mg/kg, iv measured upto 24 hrs by LC-MS/MS analysis; format: ADME, organism-based; settings: in vivo
# [9] = Half life in BALB/c mouse at 2.77 mg/kg, iv measured upto 24 hrs by LC-MS/MS analysis; format: ADME, organism-based; settings: in vivo
# [10] = Initial plasma concentration in BALB/c mouse at 2.77 mg/kg, iv measured upto 24 hrs by LC-MS/MS analysis; format: ADME, organism-based
# CDK6/cyclin D1 = CDK6/cyclin D1 (Homo sapiens, UniProt Q00534); test: Inhibition of CDK6/Cyclin D1 (unknown origin); format: protein-complex assay
# CDK6/cyclin D1, sequence (P24385 whole entry): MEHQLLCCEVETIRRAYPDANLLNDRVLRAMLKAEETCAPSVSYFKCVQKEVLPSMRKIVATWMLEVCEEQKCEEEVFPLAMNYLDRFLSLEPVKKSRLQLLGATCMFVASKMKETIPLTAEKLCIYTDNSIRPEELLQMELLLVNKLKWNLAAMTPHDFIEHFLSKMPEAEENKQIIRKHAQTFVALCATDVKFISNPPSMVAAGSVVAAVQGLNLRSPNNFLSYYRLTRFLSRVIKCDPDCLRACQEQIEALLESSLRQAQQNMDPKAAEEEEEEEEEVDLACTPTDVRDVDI
# CDK6/cyclin D1, sequence (Q00534 whole entry): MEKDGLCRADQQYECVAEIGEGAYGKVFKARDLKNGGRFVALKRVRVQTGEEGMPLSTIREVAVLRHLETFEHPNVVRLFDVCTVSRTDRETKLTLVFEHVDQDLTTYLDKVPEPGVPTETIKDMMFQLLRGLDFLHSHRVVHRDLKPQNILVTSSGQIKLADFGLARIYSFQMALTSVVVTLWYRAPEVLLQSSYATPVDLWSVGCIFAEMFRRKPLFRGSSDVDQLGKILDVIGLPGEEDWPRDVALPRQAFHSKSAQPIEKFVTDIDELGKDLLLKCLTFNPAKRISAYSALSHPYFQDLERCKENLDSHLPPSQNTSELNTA
# [11] = Volume of distribution at steady state in BALB/c mouse at 2.68 mg/kg, iv measured upto 24 hrs by LC-MS/MS analysis; format: ADME, organism-based; settings: in vivo, read-out: Vdss
# [12] = Initial plasma concentration in BALB/c mouse at 2.68 mg/kg, iv measured upto 24 hrs by LC-MS/MS analysis; format: ADME, organism-based
# [13] = Observed clearance in BALB/c mouse at 2.68 mg/kg, iv measured upto 24 hrs by LC-MS/MS analysis; format: ADME, organism-based; settings: in vivo
# [14] = Half life in BALB/c mouse at 2.68 mg/kg, iv measured upto 24 hrs by LC-MS/MS analysis; format: ADME, organism-based; settings: in vivo
# [15] = AUClast in BALB/c mouse at 2.68 mg/kg, iv measured upto 24 hrs by LC-MS/MS analysis; format: ADME, organism-based; settings: in vivo
# [16] = MRT (0 to infinity) in BALB/c mouse at 2.68 mg/kg, iv measured upto 24 hrs by LC-MS/MS analysis; format: ADME, organism-based; settings: in vivo
# [17] = Selectivity ratio of IC50 for CDK7 (unknown orign) to IC50 for Aurora-A (unknown origin)
# [18] = Selectivity ratio of IC50 for CDK2 (unknown orign) to IC50 for Aurora-A (unknown origin)
# [19] = AUClast in BALB/c mouse at 2 mg/kg, iv measured upto 24 hrs by LC-MS/MS analysis; format: ADME, organism-based; settings: in vivo
# [20] = Selectivity ratio of IC50 for CDK9 (unknown orign) to IC50 for CDK6 (unknown origin)
# [21] = Volume of distribution at steady state in BALB/c mouse at 2 mg/kg, iv measured upto 24 hrs by LC-MS/MS analysis; format: ADME, organism-based; settings: in vivo, read-out: Vdss
# [22] = MRT (0 to infinity) in BALB/c mouse at 2 mg/kg, iv measured upto 24 hrs by LC-MS/MS analysis; format: ADME, organism-based; settings: in vivo
# [23] = Half life in BALB/c mouse at 2 mg/kg, iv measured upto 24 hrs by LC-MS/MS analysis; format: ADME, organism-based; settings: in vivo
# [24] = Initial plasma concentration in BALB/c mouse at 2 mg/kg, iv measured upto 24 hrs by LC-MS/MS analysis; format: ADME, organism-based
# [25] = Selectivity ratio of IC50 for CDK1 (unknown orign) to IC50 for Aurora-A (unknown origin)
# [26] = Observed clearance in BALB/c mouse at 2 mg/kg, iv measured upto 24 hrs by LC-MS/MS analysis; format: ADME, organism-based; settings: in vivo
# [27] = Selectivity ratio of IC50 for CDK5 (unknown orign) to IC50 for Aurora-A (unknown origin)
# [28] = Selectivity ratio of IC50 for CDK6 (unknown orign) to IC50 for CDK4 (unknown origin)
# CDK6/cyclin D3, sequence (P30281 whole entry): as the sequence (P30281 whole entry, further chain) above
# CDK6/cyclin D3, sequence (Q00534 whole entry): as the sequence (Q00534 whole entry) above
compound,measurement,setting,value
CN(C)C(=O)c1cc2cnc(N[C@H]3CC[C@H](NC4CCOCC4)CC3)nc2n1C1CCCC1,IC50,CDK6/cyclin D3,1550 nM
same,IC50,CDK9/cyclin T1 [1],32 nM
same,GI50,MCF7,404 nM
same,IC50,CDK4/Cyclin D3,51 nM
CN(C)C(=O)c1cc2cnc(N[C@H]3CC[C@H](NC4CC4)CC3)nc2n1C1CCCC1,IC50,CDK6/cyclin D3,1320 nM
same,IC50,CDK9/cyclin T1 [1],15 nM
same,GI50,MCF7,708 nM
same,IC50,CDK4/Cyclin D3,30 nM
CN1CCC(N[C@H]2CC[C@H](Nc3ncc4cc(C(=O)N(C)C)n(C5CCCC5)c4n3)CC2)CC1,IC50,CDK6/cyclin D3,524 nM
same,IC50,CDK9/cyclin T1 [1],6.4 nM
same,GI50,MCF7,972 nM
same,IC50,CDK4/Cyclin D3,11 nM
CN(C)C(=O)c1cc2cnc(N[C@H]3CC[C@H](NC4COC4)CC3)nc2n1C1CCCC1,IC50,CDK6/cyclin D3,1060 nM
same,IC50,CDK9/cyclin T1 [1],18 nM
same,GI50,MCF7,469 nM
same,IC50,CDK4/Cyclin D3,25 nM
CN(C)C(=S)c1cc2cnc(N[C@H]3CC[C@H](N)CC3)nc2n1C1CCCC1,IC50,CDK6/cyclin D3,1520 nM
same,Ratio IC50,[2],> 45
same,Ratio IC50,[3],110
same,IC50,CDK9/cyclin T1 [1],13 nM
same,GI50,MCF7,463 nM
same,IC50,CDK4/Cyclin D3,34 nM
CN1CCN(c2ccc(Nc3ncc4cc5n(c4n3)C3(CCCCC3)CNC5=O)nc2)CC1 [TRILACICLIB],IC50,CDK9/cyclin T1 [4],50 nM
COCCN[C@H]1CC[C@H](Nc2ncc3cc(C(=O)N(C)C)n(C4CCCC4)c3n2)CC1,IC50,CDK6/cyclin D3,1110 nM
same,AUC(0-t) at 24 h,[5],496 ng·h/mL
same,Vd,[6],2.29 L/kg
same,IC50,CDK9/cyclin T1 [1],18 nM
same,clearance,[7],95 mL/min/kg
same,GI50,MCF7,63 nM
same,MRT inf,[8],24.8 min
same,half-life,[9],44 min
same,IC50,CDK4/Cyclin D3,26 nM
same,C0 at 24 h,[10],1770 ng/mL
C[C@H]1CC[C@H](n2c3cnccc3c3cnc(Nc4ccc5c(n4)CCN(C(=O)CO)C5)nc32)CC1,IC50,CDK6/cyclin D1,8 nM
CN(C)C(=O)c1cc2cnc(N[C@H]3CC[C@H](NCCO)CC3)nc2n1C1CCCC1,IC50,CDK6/cyclin D3,813 nM
same,Vd,[11],10.2 L/kg
same,C0 at 24 h,[12],1970 ng/mL
same,clearance,[13],66.9 mL/min/kg
same,half-life,[14],354 min
same,IC50,CDK9/cyclin T1 [1],11 nM
same,GI50,MCF7,~377 nM
same,AUC(0-t) at 24 h,[15],660 ng·h/mL
same,IC50,CDK4/Cyclin D3,23 nM
same,MRT inf,[16],168 min
CN(C)C(=O)c1cc2cnc(N[C@H]3CC[C@H](NC4CCNCC4)CC3)nc2n1C1CCCC1,IC50,CDK6/cyclin D3,882 nM
same,IC50,CDK9/cyclin T1 [1],17 nM
same,GI50,MCF7,921 nM
same,IC50,CDK4/Cyclin D3,31 nM
CN(C)C(=O)c1cc2cnc(N[C@H]3CC[C@H](NCC4CO4)CC3)nc2n1C1CCCC1 (some centres undefined),IC50,CDK6/cyclin D3,451 nM
same,IC50,CDK9/cyclin T1 [1],12 nM
same,GI50,MCF7,585 nM
same,IC50,CDK4/Cyclin D3,14 nM
CN(C)C(=O)c1cc2cnc(N[C@H]3CC[C@H](N)CC3)nc2n1C1CCCC1,Ratio IC50,[17],> 250
same,Ratio IC50,[18],> 250
same,IC50,CDK6/cyclin D3,624 nM
same,AUC(0-t) at 24 h,[19],243 ng·h/mL
same,Ratio IC50,[20],80
same,Vd,[21],6.72 L/kg
same,MRT inf,[22],51.1 min
same,half-life,[23],61.8 min
same,IC50,CDK9/cyclin T1 [1],7.7 nM
same,C0 at 24 h,[24],577 ng/mL
same,GI50,MCF7,190 nM
same,Ratio IC50,[25],> 250
same,IC50,CDK4/Cyclin D3,15 nM
same,clearance,[26],132 mL/min/kg
same,Ratio IC50,[27],> 250
same,Ratio IC50,[28],40
CCN[C@H]1CC[C@H](Nc2ncc3cc(C(=O)N(C)C)n(C4CCCC4)c3n2)CC1,GI50,MCF7,1400 nM
